In patent US5902794A (priority 1997, dated 1999):

Tests used:
[1] = tested on: LS-174T colon cancer cells; experiment: cell cycle analysis, LS-174T; assay type: cell-based, human; conditions: 8-Cl 10 μM, 3 days, two separate experiments
Method: (§1) DNA histograms were generated on FACS II by using the DNA intercalating dye propidium iodide as described by Braylan et al. (Cytometry 2: 337-343, 1982). The percentage of cells in each cycle phase was calculated by using a PDP-11/34 computer and software as described by Neckers et al. (Mol. Cell. Biol. 6: 4244-4250, 1986).
Breast (MCF-7, MDA-MB-231) and colon (LS-174T) cancer cells in
log phase (untreated control) and 3 days after treatment with
(5 μM) were analyzed for DNA content by flow cytometric analysis

[2] = tested on: breast and colon cancer cell lines; experiment: cell cycle progression of breast and colon cancer cell lines; assay type: cell-based, human; conditions: vs untreated control cells
Method: as §1
A determination was made whether the reduced cell proliferation observed in the cancer cell lines after treatment with the compounds of the present invention is due to a specific block in one phase of the cell cycle.

[3] = tested on: R^I cAMP receptor protein (LS-174T); experiment: photoaffinity labelling of R^I cAMP receptor protein, LS-174T; assay type: cell-based, human; conditions: 10 microM, 3 days; control 1.0
Method: (§2) M is marker proteins of known molecular weight.
(§3) The incubations were carried out at 23° C. for 60 minutes in 96-well immunoplates. The reaction mixtures were then irradiated for 30 seconds at 254 nm, placing a Mineralite UVS-11 hand lamp directly onto the plate. The samples were mixed with 25 microliters of 3× sample buffer (3% SDS, 15% beta-mercaptoethanol, 30 mM Tris, 30% glycerol, 1% bromophenol blue saturated solution), boiled for 3 minutes, and centrifuged at 700×g for five minutes. The samples containing 50-100 micrograms of protein were subjected to 0.05% SDS-12% PAGE. The gels were fixed, dried, and exposed to X-ray films overnight. The protein concentrations were determined by the method of Lowry et al., (J. Biol. Chem. 193: 265-275, 1951) with bovine serum albumin as standard.
(§4) The levels of the receptor proteins are expressed relative to the R^I level in the untreated control cells of MDA-MB-231 and LS-174T, which are each set equal to 1.0 O.D.; the scale was expanded to differentiate the lower intensity bands.

[4] = tested on: R^II cAMP receptor protein (LS-174T); experiment: photoaffinity labelling of R^II cAMP receptor protein, LS-174T; assay type: cell-based, human; conditions: 10 microM, 3 days; relative to control R^I
Method: as §2, §3, §4

[5] = tested on: LS-174T; experiment: growth of LS-174T cells; assay type: cell-based; conditions: Homo sapiens, LS174T, 72 h; 10 microM, 3 days
Method: as §2
All breast cancer cell lines were grown in IMEM supplemented with 10% fetal bovine serum, 20 mM HEPES, penicillin-streptomycin, and extra glutamine. Colon carcinoma cell lines were grown in EMEM supplemented with 10% FBS, EMEM, NEAA, HEPES 20 mM, extra glutamine, and penicillin-streptomycin. The cells were grown at 37° C. in humidified incubators in an atmosphere of 5% CO2.
For cell growth experiments, 2-3×10^5 cells/60 mm dish were seeded, and 24 hours later (Day 0), the medium was removed, and fresh medium and the additives were added then and every 48 hours thereafter The compounds of the present invention were added using 100× concentrated stock solutions. At desired times, cell counts in duplicate were performed on a Coulter counter after harvesting the cells with gentle trypsinization.

[6] = tested on: R^I and R^II cAMP receptor proteins in breast (MDA-MB-231) and colon (LS-174T) cancer cells; experiment: R^I and R^II cAMP receptor protein levels in breast and colon cancer lines (FIG. 6); assay type: cell-based, human
Method: as §2, §3

[7] = tested on: p21 ras protein (MCF-7 cells); experiment: Western blotting of p21 ras protein in MCF-7 cells; assay type: cell-based, human; conditions: 10 microM, three days
Method: Western blotting of p21 protein was performed as described below. […] V is cell lysate from Ha-MuSV-transformed NIH3T3 clone 13-3B-4. M, marker proteins of known molecular weight.
Cellular proteins present in cell extracts were separated by 12% SDS-PAGE and transferred to nitrocellulose sheets in transfer buffer (25 mM Tris, 192 mM glycine, 20% methanol, pH 7.4). Nitrocellulose sheets were washed and first incubated with 3% bovine serum albumin in NTE-NP40 (50 mM Tris-HCl, pH 7.5, 150 mM NaCl, 2 mM EDTA, 0.1% Nonidet P-40) for three hours at 37° C. and then sequentially incubated with medium containing p21 monoclonal antiserum Y13-259 directed against the Ha-MuSV-encoded p21 for sixteen hours at 4° C., rabbit anti-rat IgG for 2.5 hours in an ice-water bath, and 5×10^5 cpm/ml ^125 I-protein A for one hour in an ice-water bath. The nitrocellulose sheets were air-dried and exposed to Kodak XAR film for 12-36 hours at -20° C. Comparison of the resulting autoradiograms with others in which normal rat serum was substituted for p21 monoclonal antibody permitted identification of p21. To provide a reference p21, cell lysates were prepared from NIH 3T3 clone 13-3B-4 that had been transfected with Ha-MuSV DNA.
The levels of p21 protein are expressed relative to the p21 level in the untreated control cells, which is set equal to 1.0 O.D.

[8] = tested on: NMU-2; experiment: growth of metastatic NMU-2 rat mammary carcinoma; assay type: in vivo; conditions: pellet with 10 mg cAMP analogue, day 7
Method: NMU2, a variant of primary hormoneresponsive NMU tumor,
hormoneindependent, transplantable, and metastatic.
8Cl-cAMP and DBcAMP were given as a 20mg pellet consisting of 10 mg of […]

[9] = tested on: transplantable DMBA-1 and MNA-2 rat mammary carcinomas; experiment: short-term assays with transplantable rat mammary carcinomas; assay type: in vivo; conditions: 10-mg pellet, within one week
[10] = tested on: mammary tumor inductions by DMBA; experiment: DMBA mammary tumor induction (FIG. 8); assay type: in vivo; conditions: 10 mg pellet one day before DMBA
[11] = tested on: HL-60; experiment: growth inhibition of HL-60; assay type: cell-based, human
[12] = tested on: c-myc protein; experiment: c-myc protein level, Western blotting (FIG. 9B); assay type: cell-based, human; conditions: 5 micromol/L, three days
Method: The cells were grown in suspension culture in RPMI 1640 medium supplemented with 10% fetal bovine serum, penicillin (50 U/ml), streptomycin ([…]), 10 mmol/L HEPES buffer, and extra glutamine. […] Surface antigen analysis of HL-60 cells was performed by flow cytometry using a panel of monoclonal antibodies reactive with either myeloid cells or monocytic cells. Terminal deoxynucleotidyl transferase (TdT) was assayed by an immunoperoxidase method using a TdT fluorescence kit. Western blotting of c-myc protein was performed using c-myc antibody 15206D11 (Scripps Clinic and Research Foundation, LaJolla, Calif.).
M marker proteins of known molecular weight. […] The resulting supernatants were used as cell lysates. […] ND=nondetectable.

For `Nc1ncnc2c1nc(Cl)n2[C@@H]1O[C@@H]2COP(=O)(O)O[C@H]2[C@H]1O` [8-Cl-cAMP], the “% Cell population in G1” value [1] was 63,53%, the “% Cell population in G2 M” value [1] was 22,25% and the “% Cell population in S” value [1] was 15,22%. For the same compound, the activity at 10 µM ([1]; Homo sapiens, LS174T, 72 h, read-out: % Growth) was 30.3%, the “fractions of cells in G1, S and G2/M phases, in words” value [2] was “not appreciably different” and the “R^I relative level” value [3] was 0.20 ± 0.02. The “R^II relative level” value [4] was 0.25 ± 0.02, the activity at 10 µM [5] was 30% and the “increase in the ratio of R^II to R^I” value ([6]; densitometry) was “two- to three-fold increase”. The “48,000 R^I receptor protein, in words” value ([6]; three days, 10 microM) was “concomitant decrease”, the “52,000 MW (R^II) receptor protein, in words” value ([6]; three days, 10 microM) was “increased appreciably” and the “p21 level, in words” value [7] was “markedly decreased level of p21”. For the same compound, the “Change in mean tumor volume” value [8] was 1.10 cm^3, the growth inhibition [9] was 40-50% and the “reduction in the total number of tumors produced” value [10] was 70%. For the same compound, the “growth inhibition (footnote)” value ([11]; 20 μmol/L) was “Seventy percent growth inhibition”, the IC50 ([11]; Homo sapiens, HL-60) was 100 µM and the “c-myc protein level, in words” value [12] was “marked reduction of c-myc protein level”.
